# How the values were obtained:
# [1] = test system: cell membrane of P. mirabilis HI4320; test: BacLight membrane integrity assay; assay type: cell-based, Proteus mirabilis; details: PRMSE, catechol at 4 × MIC for 10 min; CTAB 10 μM; untreated = 100
# Experimental: (§1) The BacLight kit (L-13152, Invitrogen™, Life Technologies Inc., Canada) is used to assess cell membrane damage. Overnight bacterial cultures are diluted 1:40 in fresh MHBII broth to a final volume of 5 mL, grown to an OD600 of 0.5-0.6, washed with filter-sterilized 10 mM phosphate buffered saline (PBS, pH 7.0) and resuspended in 1/10 of the original volume. […] Cultures are incubated at room temperature (21±2° C.) on a tube rocker for 10 min. At the end of the incubation period, an aliquot is taken for CFU counts and the remaining suspension is washed with 10 mM PBS and resuspended to an OD600) of 0.3. An aliquot (100 μL) of each bacterial suspension is removed and added to a 96-well, black, clear-bottom plate (Corning™, Fisher Scientific, ON, Canada) along with an equal volume of the BacLight™ reagent (2× stock solution, L13152, Invitrogen™, Life Technologies Inc., Canada) and the plates are incubated for 10 min at room temperature in the dark. At the end of the incubation period, fluorescence intensity is recorded for both kit components, SYTO-9 (ex/em 485/530 nm) and propidium iodide (ex/em 485/645 nm), using the microplate reader. Fluorescence readings from samples are normalized to the values obtained from untreated control to determine the ratio of membrane compromised cells to cells with intact membrane. […]
# [2] = test system: cell membrane of P. aeruginosa PA14; test: BacLight membrane integrity assay; assay type: cell-based, Pseudomonas aeruginosa; details: PRMSE, catechol at 4 × MIC for 10 min; CTAB 10 μM; untreated = 100
# Experimental: (§2) The BacLight kit (L-13152, Invitrogen™, Life Technologies Inc., Canada) is used to assess cell membrane damage. Overnight bacterial cultures are diluted 1:40 in fresh MHBII broth to a final volume of 5 mL, grown to an OD600 of 0.5-0.6, washed with filter-sterilized 10 mM phosphate buffered saline (PBS, pH 7.0) and resuspended in 1/10 of the original volume. […] Cultures are incubated at room temperature (21±2° C.) on a tube rocker for 10 min. At the end of the incubation period, an aliquot is taken for CFU counts and the remaining suspension is washed with 10 mM PBS and resuspended to an OD600) of 0.3. An aliquot (100 μL) of each bacterial suspension is removed and added to a 96-well, black, clear-bottom plate (Corning™, Fisher Scientific, ON, Canada) along with an equal volume of the BacLight™ reagent (2× stock solution, L13152, Invitrogen™, Life Technologies Inc., Canada) and the plates are incubated for 10 min at room temperature in the dark. At the end of the incubation period, fluorescence intensity is recorded for both kit components, SYTO-9 (ex/em 485/530 nm) and propidium iodide (ex/em 485/645 nm), using the microplate reader. Fluorescence readings from samples are normalized to the values obtained from untreated control to determine the ratio of membrane compromised cells to cells with intact membrane. Cetyltrimethylammonium bromide (CTAB, Sigma-Aldrich Canada), a cationic detergent that is known to cause membrane damage, is used at concentration of 10 μM as a positive control for membrane disruption.
# [3] = test system: cell membrane of P. aeruginosa PAO1; test: BacLight membrane integrity assay; assay type: cell-based, Pseudomonas aeruginosa; details: PRMSE, catechol at 4 × MIC for 10 min; CTAB 10 μM; untreated = 100
# Experimental: as §2
# [4] = test system: proton motive force-driven multidrug efflux pump of P. aeruginosa PAO1; test: Ethidium bromide (EtBr) efflux assay; assay type: cell-based, Pseudomonas aeruginosa; details: PRMSE, catechol at 0.25 times the MIC; CCCP 100 μM; untreated cells 37.6
# Experimental: (§3) An overnight grown culture of each strain is diluted 1:100 using MHB-II broth to a final volume of 10 mL and grown to an OD600 of 0.8-1.0 (at 37° C., 150 rpm). […] The tubes are incubated for 1 h (37° C., 150 rpm). The inoculum is then adjusted to 0.4 OD600 with MHB-II broth containing 5 μM EtBr and 2 mL aliquots of this mixture are pelleted (5000×g, 10 min at 4° C.). The pellets are incubated on ice immediately, resuspended in 1 mL of MHB-II, and aliquoted (200 μL) into a polystyrene 96 well black, clear-bottom plate (Corning™, Fisher Scientific, ON, Canada). EtBr efflux from the cells is monitored at room temperature using the microplate reader (ex/em 530/600 nm). Readings are taken at 5 min intervals for 1 h to monitor efflux pump activity. The background fluorescence of the medium is subtracted from all measurements and the assay is repeated independently in triplicate.
# [5] = test system: proton motive force-driven multidrug efflux pump of P. aeruginosa PA14; test: Ethidium bromide (EtBr) efflux assay; assay type: cell-based, Pseudomonas aeruginosa; details: PRMSE, catechol at 0.25 times the MIC; CCCP 100 μM; untreated cells 30.9
# Experimental: as §3
# [6] = test system: cell membrane of E. coli CFT073; test: BacLight membrane integrity assay; assay type: cell-based, Escherichia coli; details: PRMSE, catechol at 4 × MIC for 10 min; CTAB 10 μM; untreated = 100
# Experimental: as §1
# [7] = test system: E. coli CFT073; test: Bacterial colony forming ability (CFU counts after exposure); assay type: cell-based, Escherichia coli; details: log decrease vs untreated control, 4 × MIC, 10 min, CTAB 10 μM
# Experimental: as §2
# [8] = test system: outer membrane of P. aeruginosa PAO1; test: Outer membrane permeabilization, NPN uptake assay; assay type: cell-based, Pseudomonas aeruginosa; details: sub-MIC; concentration giving maximal increase in NPN uptake
# Experimental: (§4) The cells are harvested, washed with 5 mM HEPES buffer (pH 7.2), and resuspended in the same volume (10 mL) of 5 mM HEPES buffer (pH 7.2) containing 1 mM N-ethylmaleimide (NEM, Sigma-Aldrich Canada). Aliquots (1 mL) are mixed with NPN to a final concentration of 10 μM (in cell suspension) and fluorescence is measured using the microplate reader (ex/em 350/420 nm).
# [9] = test system: outer membrane of P. aeruginosa PA14; test: Outer membrane permeabilization, NPN uptake assay; assay type: cell-based, Pseudomonas aeruginosa; details: sub-MIC; concentration giving maximal increase in NPN uptake
# Experimental: as §4
# [10] = test system: proton motive force-driven multidrug efflux pump of E. coli CFT073; test: Ethidium bromide (EtBr) efflux assay; assay type: cell-based, Escherichia coli; details: PRMSE, catechol at 0.25 times the MIC; CCCP 100 μM; untreated cells 36.9
# Experimental: as §3
# [11] = test system: E. coli CFT073 biofilm; test: Biofilm formation, microtitre plate crystal violet assay; assay type: cell-based, Escherichia coli; details: p<0.05
# Experimental: (§5) Biofilm formation is quantified using the standard microtitre plate model. […] Aliquots (100 μL) of these cultures are transferred into the wells of polystyrene, flat bottom, non-treated 96 well plates (Falcon™, Corning™), in triplicate. For all assays, biofilms are allowed to develop for 16 h at 37° C. under static conditions, after which OD600 values are recorded, the spent broth is decanted from the wells, and the wells are gently rinsed three times with DI water. The washed biofilm is stained with crystal violet (CV). For CV stain assay, 100 μL of 0.1% (w/v) CV is loaded in each well and the plates are incubated for 15 min under static conditions at room temperature. The wells are subsequently rinsed with DI water to remove excess dye and the CV adsorbed to the biomass in each well is solubilized in 100 μL of absolute ethanol for 10 min. The solubilized CV is then quantified (as OD570) using a microplate reader. Control experiments are performed with cell-free broth to adjust for the background signal.
# [12] = test system: proton motive force-driven multidrug efflux pump of P. mirabilis HI4320; test: Ethidium bromide (EtBr) efflux assay; assay type: cell-based, Proteus mirabilis; details: PRMSE, catechol at 0.25 times the MIC; CCCP 100 μM; untreated cells 35.9
# Experimental: as §3
# [13] = test system: outer membrane of P. mirabilis HI4320; test: Outer membrane permeabilization, NPN uptake assay; assay type: cell-based, Proteus mirabilis; details: sub-MIC; concentration giving maximal increase in NPN uptake
# Experimental: as §4
# [14] = test system: outer membrane of E. coli CFT073; test: Outer membrane permeabilization, NPN uptake assay; assay type: cell-based, Escherichia coli; details: sub-MIC; concentration giving maximal increase in NPN uptake
# Experimental: as §4
# [15] = test system: P. mirabilis HI4320; test: Bacterial colony forming ability (CFU counts after exposure); assay type: cell-based, Proteus mirabilis; details: log decrease vs untreated control, 4 × MIC, 10 min, CTAB 10 μM
# Experimental: as §2
# [16] = test system: P. mirabilis HI4320 biofilm; test: Biofilm formation, microtitre plate crystal violet assay; assay type: cell-based, Proteus mirabilis; details: p<0.05
# Experimental: as §5
# [17] = substance alone at sub-lethal concentrations, 16 h
# [18] = with ciprofloxacin, both at sub-lethal concentrations
smiles,measurement,setting,value
"Oc1ccccc1O [catechol, 1,2-dihydroxybenzene]",% cells with uncompromised membrane,[1],50.3%
same,% cells with uncompromised membrane,[2],78.6%
same,% cells with uncompromised membrane,[3],80.4%
same,% EtBr efflux,[4],35.8%
same,Efflux pump activity,[5],29.9%
same,% cells with uncompromised membrane (BacLight assay),[6],68%
same,Bacterial colony forming ability (Δ log CFU mL^−1),[7],2.3 Δ log CFU mL^−1
same,Bacterial colony forming ability (Δ log CFU mL^−1),[7]; listed as Catechol,≥ 1.5 Δ log CFU mL^−1
same,Minimum permeabilization concentration,[8],0.5 mg/mL
same,Minimum permeabilization concentration,[9],0.5 mg/mL
same,Efflux pump activity,[10],34.3%
same,inhibition of monoculture biofilm formation (OD570/OD600),[11]; [17],significant inhibitory effects
same,"inhibitory effect on biofilm formation, with ciprofloxacin",[11]; [18],significant inhibitory effects
same,Efflux pump activity,[12],33.9%
same,Minimum permeabilization concentration,[13],1 mg/mL
same,Minimum permeabilization concentration (NPN assay),[14],0.06 mg/mL
same,Bacterial colony forming ability (Δ log CFU mL^−1),[15],3.2 Δ log CFU mL^−1
same,Bacterial colony forming ability (Δ log CFU mL^−1),[15]; listed as Catechol,≥ 1.5 Δ log CFU mL^−1
same,inhibition of monoculture biofilm formation (OD570/OD600),[16]; [17],significant inhibitory effects
same,"inhibitory effect on biofilm formation, with ciprofloxacin",[16]; [18],significant inhibitory effects
